Measured values reported in paper PMC9569680, “Antiviral Compounds Screening Targeting HBx Protein of the Hepatitis B Virus” (International Journal of Molecular Sciences, 2022).
Where a name gives a salt, the structure may show the parent alone. Read-outs that look alike come from different tables or passages of the source.

Columns and labels:
[1] = target: T1, GST-HBx (genotype D); HBx-D (Hepatitis B virus, UniProt Q80IS1); assay: SPR imaging, compound array (PlexArray HT); type: binding
T1 construct: gene X; N-terminal GST tag kept (GST 26 kDa; GST-HBx 43 kDa), full-length HBx (154 aa), pGEX, E. coli BL21 (DE3), glutathione-Sepharose
From the text: SPR imaging, compound array (PlexArray HT) on GST-HBx (genotype D); HBx-D

[2] = target: T2, GST-HBx (genotype B); HBx-B; assay: SPR imaging, compound array (PlexArray HT); design: species or system Hepatitis B virus; details: PBS, 25 °C; compound UV-linked to chip surface, GST-HBx 25-100 nM as analyte
T2 construct: gene X; N-terminal GST tag kept (GST 26 kDa; GST-HBx 43 kDa), full-length HBx (154 aa), pGEX, E. coli BL21 (DE3), glutathione-Sepharose

[3] = target: T1, GST-HBx (genotype D); HBx-D; assay: biochemical; design: Surface plasmon resonance imaging; GST-HBx injected over chip of photo-crosslinked FDA-approved drugs (PlexArray HT), Langmuir fit
Protocol: All the assays and analyses were performed by Plexera LLC. The binding activity was measured by surface plasmon resonance imaging (SPRi) using a PlexArray HT system (Plexera LLC). The FDA1018 drug library chip consists of an array of 1018 U.S. FDA-approved drugs were ultraviolet-linked on the surface of a chip and used for screening of compounds that bind to the HBx protein. Phosphate-buffered saline was used for a running buffer and 10 mM glycine hydrochloride (pH 2.0) for a regeneration buffer. 25, 50, or 100 nM of GST-HBx protein were injected on the chip surface at a flow rate of […] in order, and the SPRi signal was measured at 25 °C. FK506-binding protein 12 (FKBP12) was used for a positive control (Supplementary Figure S1). The data were analyzed by Plexera Data Analysis Software based on Langmuir adsorption isotherm, and determination of the dissociation constant, dissociation rate constant, and association rate constant was carried out. The binding of GST-HBx protein to 1018 FDA-approved compounds was screened on a chip by SPRi assay. […] Because purification of HBx alone was difficult due to insolubility, HBx was expressed as a GST-fused protein.

Compound	Kd [1] [nM]	Kd [2] [nM]	koff [3] [s⁻¹]	kon ([3]; read-out: kon) [M⁻¹ s⁻¹]	Kd [3] [nM]	kon ([3]; binder, kon (M-1 s-1)) [M⁻¹ s⁻¹]
COc1ccc(/C=C/C(=O)Nc2ccccc2C(=O)O)cc1OC [Tranilast]	0.00135	0.184	2.61e-07	194000		
CC(C(=O)O)c1ccc2c(c1)Cc1cccnc1O2 (stereo not drawn) [Pranoprofen]			0.000292	52300	5.58	
CC(C(=O)O)c1ccc(C(=O)c2cccs2)cc1 (stereo not drawn) [Suprofen]			0.000308	112000	2.75	
CCCCC(CC)CNC(=N)NC(=N)NCCCCCCNC(=N)NC(=N)NCC(CC)CCCC (stereo not drawn) [Alexidine hydrochloride]	0.0495		7.83e-06	158000		
CC[C@H]1OC(=O)C[C@@H](O)[C@H](C)[C@@H](O[C@@H]2O[C@H](C)[C@@H](O)[C@H](N(C)C)[C@H]2O)[C@@H](CCN2C[C@H](C)C[C@H](C)C2)C[C@@H](C)C(=O)/C=C/C(C)=C/[C@@H]1CO[C@@H]1O[C@H](C)[C@@H](O)[C@@H](OC)[C@H]1OC [Tilmicosin]			8.79e-05	67700	1.3	
CC[C@H]1OC(=O)[C@H](C)[C@@H](O[C@H]2C[C@@](C)(OC)[C@@H](O)[C@H](C)O2)[C@H](C)[C@@H](O[C@@H]2O[C@H](C)C[C@H](N(C)C)[C@H]2O)[C@](C)(O)C[C@@H](C)CN(C)[C@H](C)[C@@H](O)[C@]1(C)O [Azithromycin]	0.0467	1.31		85100	1.15	89200
CCCCC(=O)N(Cc1ccc(-c2ccccc2-c2nn[nH]n2)cc1)[C@H](C(=O)O)C(C)C [Valsartan]	0.912	7.94	0.00017	186000		
Cc1noc(NS(=O)(=O)c2ccc(N)cc2)c1C [Sulfisoxazole]			0.000509	51500	9.88	
CCOc1nc2cccc(C(=O)O)c2n1Cc1ccc(-c2ccccc2-c2noc(=O)[nH]2)cc1 [Azilsartan]			0.000348	146000	2.38	
CC1=NN(c2ccc(C)c(C)c2)C(=O)/C1=N\Nc1cccc(-c2cccc(C(=O)O)c2)c1O [Eltrombopag]			0.000385	45500	8.46	
CCC1=C(C)CN(C(=O)NCCc2ccc(S(=O)(=O)NC(=O)N[C@H]3CC[C@H](C)CC3)cc2)C1=O [Glimepiride]			0.000366	37300	9.81	
CC(C)[C@H]1CC[C@H](C(=O)N[C@H](Cc2ccccc2)C(=O)O)CC1 [Nateglinide]			0.00016	69100	2.31	
CC(C)NCC(O)COc1ccc(CCOCC2CC2)cc1 (stereo not drawn) [Betaxolol]			9.85e-06	7710	1.28	
CC1(C)[C@@H](O[C@H]2O[C@H](C(=O)O)[C@@H](O)[C@H](O)[C@H]2O[C@@H]2O[C@H](C(=O)O)[C@@H](O)[C@H](O)[C@H]2O)CC[C@]2(C)[C@H]3C(=O)C=C4[C@@H]5C[C@@](C)(C(=O)O)CC[C@]5(C)CC[C@@]4(C)[C@]3(C)CC[C@@H]12 [Ammonium glycyrrhizinate]	0.756		0.000108	143000		
CCOc1nc2cccc(C(=O)O)c2n1Cc1ccc(-c2ccccc2-c2nnn[nH]2)cc1 [Candesartan]			0.00021	158000	1.33	
O=C(O)c1ccc(-n2nc(-c3ccccc3O)nc2-c2ccccc2O)cc1 [Deferasirox]			0.000134	95800	1.4	
Cc1cnc(C(=O)NCCc2ccc(S(=O)(=O)NC(=O)NC3CCCCC3)cc2)cn1 [Glipizide]			0.000203	45100	4.49	
CCCCCCCCCCCC[N+](C)(C)CCOc1ccccc1 [Domiphen Bromide]	0.0288		3.03e-06	105000		
CCCc1nc(C(C)(C)O)c(C(=O)OCc2oc(=O)oc2C)n1Cc1ccc(-c2ccccc2-c2nnn[nH]2)cc1 [Olmesartan medoxomil]			0.000581	108000		
